According to ChEMBL document CHEMBL3885881, “DrugMatrix”:

Species on record: Rattus norvegicus
Assay: DrugMatrix - Regimen: Daily Repeat
Type: toxicity, organism-based, Sprague-Dawley
Design: regimen Daily Repeat, gender Male, age 6-8 weeks
Settings: in vivo, ip, 0 mg/kg, route intraperitoneal, dose level Control, […]; for ABSOLUTE BASOPHIL / ABSOLUTE EOSINOPHIL / ABSOLUTE LYMPHOCYTE / ABSOLUTE MONOCYTE / ABSOLUTE SEGMENTED NEUTROPHIL / BASOPHIL / EOSINOPHIL / ERYTHROCYTE COUNT / HEMATOCRIT / HEMOGLOBIN / LEUKOCYTE COUNT / LYMPHOCYTE / MEAN CORPUSCULAR HEMOGLOBIN / MEAN CORPUSCULAR HEMOGLOBIN CONCENTRATION / MEAN CORPUSCULAR VOLUME / MONOCYTE / NEUTROPHIL / NUCLEATED RED BLOOD CELLS / PLATELET COUNT: tissue Blood; for ALANINE AMINOTRANSFERASE / ALBUMIN / ALKALINE PHOSPHATASE / ASPARTATE AMINOTRANSFERASE / BLOOD UREA NITROGEN / CARBON DIOXIDE / CHLORIDE / CHOLESTEROL / CREATININE / GLUCOSE / LACTATE DEHYDROGENASE / LIPASE / PHOSPHORUS / POTASSIUM / SODIUM / TOTAL BILIRUBIN / TOTAL PROTEIN / URIC ACID: tissue Plasma

## ClC(Cl)=C(Cl)C(Cl)=C(Cl)Cl [HEXACHLOROBUTADIENE]
72 h, time 3 day
  ABSOLUTE BASOPHIL: 0 CELLS/uL
  ABSOLUTE EOSINOPHIL: 135.5 CELLS/uL
  ABSOLUTE LYMPHOCYTE: 9030.67 CELLS/uL
  ABSOLUTE MONOCYTE: 286.5 CELLS/uL
  ABSOLUTE SEGMENTED NEUTROPHIL: 1330.67 CELLS/uL
  BASOPHIL: 0%
  EOSINOPHIL: 1.17%
  ERYTHROCYTE COUNT: 5.54 x10E6/uL
  HEMATOCRIT: 35.2%
  HEMOGLOBIN: 12.65 G/DL
  LEUKOCYTE COUNT: 10.78 x10E3/uL
  LYMPHOCYTE: 83.83%
  MEAN CORPUSCULAR HEMOGLOBIN: 22.87 pg
  MEAN CORPUSCULAR HEMOGLOBIN CONCENTRATION: 35.98 G/DL
  MEAN CORPUSCULAR VOLUME: 63.7 fL
  MONOCYTE: 2.5%
  NEUTROPHIL: 12.5%
  NUCLEATED RED BLOOD CELLS: 0 /100WBC
  PLATELET COUNT: 853.5 x10E3/uL
  ALANINE AMINOTRANSFERASE: 45.83 u/L
  ALBUMIN: 4.22 G/DL
  ALKALINE PHOSPHATASE: 344.5 u/L
  ASPARTATE AMINOTRANSFERASE: 85.33 u/L
  BLOOD UREA NITROGEN: 16.17 mg/dL
  CARBON DIOXIDE: 33.33 mmol/L
  CHLORIDE: 101.33 MEQ/L
  CHOLESTEROL: 73.33 mg/dL
  CREATININE: 0.19 mg/dL
  GLUCOSE: 157.67 mg/dL
  LACTATE DEHYDROGENASE: 160.33 u/L
  LIPASE: 9.83 u/L
  PHOSPHORUS: 11.4 mg/dL
  POTASSIUM: 6.1 MEQ/L
  SODIUM: 146.25 MEQ/L
  TOTAL BILIRUBIN: 0.17 mg/dL
  TOTAL PROTEIN: 6.3 G/DL
  URIC ACID: 1.28 mg/dL
120 h, time 5 day
  ABSOLUTE BASOPHIL: 0 CELLS/uL
  ABSOLUTE EOSINOPHIL: 134 CELLS/uL
  ABSOLUTE LYMPHOCYTE: 9272.17 CELLS/uL
  ABSOLUTE MONOCYTE: 286 CELLS/uL
  ABSOLUTE SEGMENTED NEUTROPHIL: 1357.83 CELLS/uL
  BASOPHIL: 0%
  EOSINOPHIL: 1.17%
  ERYTHROCYTE COUNT: 5.83 x10E6/uL
  HEMATOCRIT: 36.17%
  HEMOGLOBIN: 13.1 G/DL
  LEUKOCYTE COUNT: 11.05 x10E3/uL
  LYMPHOCYTE: 83.83%
  MEAN CORPUSCULAR HEMOGLOBIN: 22.5 pg
  MEAN CORPUSCULAR HEMOGLOBIN CONCENTRATION: 36.25 G/DL
  MEAN CORPUSCULAR VOLUME: 62 fL
  MONOCYTE: 2.67%
  NEUTROPHIL: 12.33%
  NUCLEATED RED BLOOD CELLS: 0 /100WBC
  PLATELET COUNT: 806.67 x10E3/uL
  ALANINE AMINOTRANSFERASE: 50.83 u/L
  ALBUMIN: 4.13 G/DL
  ALKALINE PHOSPHATASE: 358.17 u/L
  ASPARTATE AMINOTRANSFERASE: 148.83 u/L
  BLOOD UREA NITROGEN: 13.83 mg/dL
  CARBON DIOXIDE: 35.83 mmol/L
  CHLORIDE: 99.33 MEQ/L
  CHOLESTEROL: 80.5 mg/dL
  CREATININE: 0.19 mg/dL
  GLUCOSE: 156.33 mg/dL
  LACTATE DEHYDROGENASE: 238.17 u/L
  LIPASE: 9.17 u/L
  PHOSPHORUS: 12.53 mg/dL
  POTASSIUM: 6.34 MEQ/L
  SODIUM: 145.15 MEQ/L
  TOTAL BILIRUBIN: 0.18 mg/dL
  TOTAL PROTEIN: 6.07 G/DL
  URIC ACID: 1.3 mg/dL
Time 14 day
  ABSOLUTE BASOPHIL: 0 CELLS/uL
  ABSOLUTE EOSINOPHIL: 56.5 CELLS/uL
  ABSOLUTE LYMPHOCYTE: 12701 CELLS/uL
  ABSOLUTE MONOCYTE: 330.33 CELLS/uL
  ABSOLUTE SEGMENTED NEUTROPHIL: 2428.83 CELLS/uL
  BASOPHIL: 0%
  EOSINOPHIL: 0.33%
  ERYTHROCYTE COUNT: 6.18 x10E6/uL
  HEMATOCRIT: 36.42%
  HEMOGLOBIN: 13.22 G/DL
  LEUKOCYTE COUNT: 15.52 x10E3/uL
  LYMPHOCYTE: 82.5%
  MEAN CORPUSCULAR HEMOGLOBIN: 21.38 pg
  MEAN CORPUSCULAR HEMOGLOBIN CONCENTRATION: 36.32 G/DL
  MEAN CORPUSCULAR VOLUME: 58.92 fL
  MONOCYTE: 2.17%
  NEUTROPHIL: 15%
  NUCLEATED RED BLOOD CELLS: 0 /100WBC
  PLATELET COUNT: 999 x10E3/uL
  ALANINE AMINOTRANSFERASE: 39.17 u/L
  ALBUMIN: 4.05 G/DL
  ALKALINE PHOSPHATASE: 275.17 u/L
  ASPARTATE AMINOTRANSFERASE: 84.5 u/L
  BLOOD UREA NITROGEN: 12 mg/dL
  CARBON DIOXIDE: 29.5 mmol/L
  CHLORIDE: 101 MEQ/L
  CHOLESTEROL: 73.83 mg/dL
  CREATININE: 0.19 mg/dL
  GLUCOSE: 146.5 mg/dL
  LACTATE DEHYDROGENASE: 285.67 u/L
  LIPASE: 9 u/L
  PHOSPHORUS: 11.67 mg/dL
  POTASSIUM: 6.82 MEQ/L
  SODIUM: 143.57 MEQ/L
  TOTAL BILIRUBIN: 0.13 mg/dL
  TOTAL PROTEIN: 6.23 G/DL
  URIC ACID: 1.75 mg/dL
